In PubChem BioAssay (NCI):
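Here, GI50 denotes the concentration required for 50% inhibition of growth. TGI denotes the concentration required for complete inhibition of growth.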

What was measured:
Experiment in all cases: NCI-60 cell line screen, 384-well format
[1] = tested on: EKVX NSCLC
[2] = tested on: RXF 393 renal
[3] = tested on: RPMI-8226 leukemia
[4] = tested on: A549 NSCLC
[5] = tested on: OVCAR-3 ovarian
[6] = tested on: NCI-H23 lung
[7] = tested on: MDA-MB-468 breast
[8] = tested on: DU-145 prostate
[9] = tested on: MDA-MB-435 melanoma
[10] = tested on: SK-MEL-2 melanoma
[11] = tested on: K-562 leukemia
[12] = tested on: TK-10 renal
[13] = tested on: NCI-H322M lung
[14] = tested on: SK-MEL-5 melanoma
[15] = tested on: BT-549 breast
[16] = tested on: SNB-75 CNS
[17] = tested on: IGROV1 ovarian
[18] = tested on: OVCAR-5 ovarian
[19] = tested on: SF-539 CNS
[20] = tested on: T-47D breast
[21] = tested on: 786-0 renal
[22] = tested on: UACC-257 melanoma
[23] = tested on: A498 renal
[24] = tested on: COLO 205 colon
[25] = tested on: CCRF-CEM leukemia
[26] = tested on: HL-60(TB) leukemia
[27] = tested on: SR leukemia
[28] = tested on: HOP-62 NSCLC
[29] = tested on: SW-620 colon
[30] = tested on: KM12 colon

With `NCCCCN(Cc1nc2ccccc2[nH]1)[C@H]1CCCc2cccnc21` the TGI [1] was 24.5 µM, the GI50 [2] was 4.56 µM and the TGI [2] was 21.4 µM. For the same compound, the GI50 [3] was 5.63 µM, the TGI [3] was 19.1 µM and the GI50 [4] was 9.68 µM. For the same compound, the TGI [4] was 28.4 µM, the GI50 [5] was 2.2 µM and the TGI [5] was 15.9 µM. The GI50 [6] was 4.94 µM, the TGI [6] was 22.9 µM and the GI50 [7] was 2.81 µM. For the same compound, the TGI [7] was 8.14 µM, the GI50 [8] was 7.23 µM and the TGI [8] was > 100 µM. The GI50 [9] was 7.39 µM, the TGI [9] was 23.3 µM and the GI50 [10] was 20.3 µM. The TGI [10] was 34.7 µM, the GI50 [11] was 10.2 µM and the TGI [11] was 22.5 µM. The GI50 [12] was 10.6 µM, the TGI [12] was 23.6 µM and the GI50 [13] was 4.64 µM. For the same compound, the TGI [13] was 24.6 µM, the GI50 [14] was 2.62 µM and the TGI [14] was 15.9 µM. The GI50 [15] was 7.45 µM, the TGI [15] was 28.5 µM and the GI50 [16] was 4.2 µM. For the same compound, the TGI [16] was 18.1 µM, the GI50 [17] was 5.7 µM and the TGI [17] was 19.1 µM. It also gave a GI50 [18] of 5.13 µM, a TGI [18] of 28.2 µM and a GI50 [19] of 9.07 µM. For the same compound, the TGI [19] was 21.3 µM, the GI50 [20] was 12.7 µM and the TGI [20] was 32.1 µM. The GI50 [21] was 8.34 µM, the TGI [21] was 31.3 µM and the GI50 [22] was 7.89 µM. The TGI [22] was 20.5 µM, the GI50 [23] was 14.7 µM and the TGI [23] was 44.2 µM. The GI50 [24] was 2.35 µM, the TGI [24] was 5.73 µM and the GI50 [25] was 5.43 µM. For the same compound, the TGI [25] was 18.5 µM, the GI50 [26] was 1.35 µM and the TGI [26] was 2.82 µM. For the same compound, the GI50 [27] was 1.3 µM, the TGI [27] was 2.59 µM and the GI50 [28] was 3.94 µM. It also gave a TGI [28] of 19 µM, a GI50 [29] of 10.4 µM and a TGI [29] of 34.1 µM. It also gave a GI50 [30] of 6.23 µM and a TGI [30] of 33.8 µM.
